We go through six compounds from patent publication US8822500B2, “Tyrosine kinase inhibitors” (Chembridge Corporation, priority 2008, dated 2014).

Like-named read-outs stand apart in the source and are kept apart here. Some results are limits rather than exact numbers.

One data set addresses INSR (Homo sapiens (Human), UniProt P06213). Kind of data set: In vitro kinase activity assay (LANCE TR-FRET). Format: biochemical.
The target of a further data set is ALK (Homo sapiens (Human), UniProt Q9UM73). The data set is described as follows: In vitro kinase activity assay (LANCE TR-FRET). The class given is biochemical. (Time-resolved FRET reads energy transfer from a long-lived donor to a nearby acceptor.)
For the next data set, the system named is U937 lymphoma cells. Kind of data set: Cellular assay, 3 day cell viability (WST-1). The class given is cell-based. The settings on record: Homo sapiens, U-937, 72 h, 3 days, WST-1. (Tetrazolium dyes change colour on reduction, which living cells bring about.)
A further data set deals with K299 lymphoma cells. The data set is described as follows: Cellular assay, 3 day cell viability (WST-1). The class given is cell-based. The settings on record: 72 h, 3 days.
The target of another data set is ALK (WT) (Homo sapiens (Human), UniProt Q9UM73). Kind of data set: Cell free kinase assay (Carna Biosciences kinases). Format: biochemical.
The test system of the next data set is EML4-ALK BaF3 cells. Kind of data set: BaF3 stables cell viability (WST-1).
Data set [1] deals with T1, hERG (human ether-a-go-go related gene) potassium channel (Homo sapiens (Human), UniProt Q12809). Kind of data set: hERG potassium channel current, automated patch clamp (PatchXpress 7000A).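 Further: Four-point series of 0.3, 3, 10 and 30 µM, two cells recorded per concentration, 5 min exposure at each level.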 A general note: hERG is a cardiac potassium channel; its block is linked to QT prolongation.
The target of data set [2] is T1, hERG (human ether-a-go-go related gene) potassium channel. The settings on record: 5 min.
A further data set addresses hERG potassium channel (Homo sapiens (Human), UniProt Q12809). The data set is described as follows: in vitro.
Data set [3] in a line: in vitro. The settings on record: rat, microsomes.
The target of another data set is IGF1R (Homo sapiens (Human), UniProt P08069). The data set is described as follows: In vitro kinase activity assay (LANCE TR-FRET). Format: biochemical.
The target of the next data set is TrkA (Homo sapiens (Human), UniProt P04629). The data set is described as follows: In vitro kinase activity assay (LANCE TR-FRET). Format: biochemical.
Data set [4] is described as follows: in vitro. The conditions noted are these: human, microsomes.
Data set [5] in a line: Metabolic stability, Phase I microsome reactions. Format: in vitro ADME, mouse. The settings on record: mouse, liver microsomes, pH 7.4, Phase I only, 1.0 mg/ml microsomes, read-out: Mouse LM-P1 Half-life.
The target in the next data set is TrkB (Homo sapiens (Human), UniProt Q16620). Kind of data set: In vitro kinase activity assay (LANCE TR-FRET). The conditions noted are these: read-out: GTx-TrKB IC50. Format: biochemical.
A further data set relates to SUDHL-1 lymphoma cells. The data set is described as follows: Cellular assay, 3 day cell viability (WST-1). The class given is cell-based. The conditions noted are these: Homo sapiens, SU-DHL-1, 72 h; 3 days, WST-1; read-out: GTx-SUDHL-1 IC50.
In the next data set the target is TrkC (Homo sapiens (Human), UniProt Q16288). Kind of data set: In vitro kinase activity assay (LANCE TR-FRET). Format: biochemical. The settings on record: read-out: GTx-TrKC IC50.
Data set [6] deals with EML4-ALK C1156Y BaF3 cells. Kind of data set: BaF3 stables cell viability (WST-1). The conditions noted are these: read-out: BaF3 Stables IC50 nM C1156Y; EML4-ALK construct.
Data set [7] deals with EML4-ALK R1275Q BaF3 cells. The data set is described as follows: BaF3 stables cell viability (WST-1). The settings on record: read-out: BaF3 Stables IC50 nM R1275Q; EML4-ALK construct.
The conditions of data set [8]: microsomes, 0.5 μM, pH 7.4.
The mark [9] stands for this setting: Individual Data Points (% Inhibition).
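Wherever ALK (nM) IC50 is given: kinase reactions with ATP and a poly-GT peptide substrate, phosphorylated product read by time-resolved FRET, 11-point curve from 10^−11 to 10^−5 M, DMSO as negative control.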
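Wherever TrkA (nM) IC50 is given: kinase reaction with poly-GT peptide substrate and ATP, phosphorylated product quantified by time-resolved FRET, eleven-point dose curves from 10^−11 to 10^−5 M in triplicate, DMSO as negative control.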

T1 sequence (Q12809 whole entry): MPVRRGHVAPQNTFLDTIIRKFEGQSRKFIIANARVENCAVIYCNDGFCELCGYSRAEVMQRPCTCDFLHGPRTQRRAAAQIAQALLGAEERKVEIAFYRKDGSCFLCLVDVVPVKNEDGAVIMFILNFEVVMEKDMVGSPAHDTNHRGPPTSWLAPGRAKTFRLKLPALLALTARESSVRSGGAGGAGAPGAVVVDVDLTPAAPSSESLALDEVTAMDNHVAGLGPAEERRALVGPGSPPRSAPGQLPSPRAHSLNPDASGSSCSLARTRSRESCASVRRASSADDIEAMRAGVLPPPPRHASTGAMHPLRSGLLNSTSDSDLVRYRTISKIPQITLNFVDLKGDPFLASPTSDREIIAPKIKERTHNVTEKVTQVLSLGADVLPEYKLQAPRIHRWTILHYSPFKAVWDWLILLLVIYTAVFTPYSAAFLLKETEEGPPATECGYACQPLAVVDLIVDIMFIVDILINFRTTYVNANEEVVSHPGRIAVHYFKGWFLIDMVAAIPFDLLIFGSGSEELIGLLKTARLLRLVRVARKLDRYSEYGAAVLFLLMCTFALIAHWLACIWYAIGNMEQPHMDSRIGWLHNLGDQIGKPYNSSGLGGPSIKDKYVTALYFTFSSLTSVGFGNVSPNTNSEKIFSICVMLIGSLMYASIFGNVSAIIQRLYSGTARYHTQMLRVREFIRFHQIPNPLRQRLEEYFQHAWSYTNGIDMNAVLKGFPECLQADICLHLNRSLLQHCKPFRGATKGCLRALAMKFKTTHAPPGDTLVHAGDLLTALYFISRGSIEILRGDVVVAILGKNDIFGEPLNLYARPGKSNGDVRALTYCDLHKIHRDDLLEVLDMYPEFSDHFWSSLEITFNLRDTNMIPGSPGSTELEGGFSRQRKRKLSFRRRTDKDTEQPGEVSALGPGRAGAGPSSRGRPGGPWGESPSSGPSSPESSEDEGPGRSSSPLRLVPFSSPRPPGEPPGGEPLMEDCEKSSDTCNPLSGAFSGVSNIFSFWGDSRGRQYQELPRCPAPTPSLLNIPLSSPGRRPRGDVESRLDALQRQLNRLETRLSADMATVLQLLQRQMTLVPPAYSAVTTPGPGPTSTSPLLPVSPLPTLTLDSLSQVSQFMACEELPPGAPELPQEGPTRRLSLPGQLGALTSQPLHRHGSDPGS
Sequence of hERG potassium channel (Q12809 whole entry): as above
Sequence of ALK (Q9UM73 19-1620): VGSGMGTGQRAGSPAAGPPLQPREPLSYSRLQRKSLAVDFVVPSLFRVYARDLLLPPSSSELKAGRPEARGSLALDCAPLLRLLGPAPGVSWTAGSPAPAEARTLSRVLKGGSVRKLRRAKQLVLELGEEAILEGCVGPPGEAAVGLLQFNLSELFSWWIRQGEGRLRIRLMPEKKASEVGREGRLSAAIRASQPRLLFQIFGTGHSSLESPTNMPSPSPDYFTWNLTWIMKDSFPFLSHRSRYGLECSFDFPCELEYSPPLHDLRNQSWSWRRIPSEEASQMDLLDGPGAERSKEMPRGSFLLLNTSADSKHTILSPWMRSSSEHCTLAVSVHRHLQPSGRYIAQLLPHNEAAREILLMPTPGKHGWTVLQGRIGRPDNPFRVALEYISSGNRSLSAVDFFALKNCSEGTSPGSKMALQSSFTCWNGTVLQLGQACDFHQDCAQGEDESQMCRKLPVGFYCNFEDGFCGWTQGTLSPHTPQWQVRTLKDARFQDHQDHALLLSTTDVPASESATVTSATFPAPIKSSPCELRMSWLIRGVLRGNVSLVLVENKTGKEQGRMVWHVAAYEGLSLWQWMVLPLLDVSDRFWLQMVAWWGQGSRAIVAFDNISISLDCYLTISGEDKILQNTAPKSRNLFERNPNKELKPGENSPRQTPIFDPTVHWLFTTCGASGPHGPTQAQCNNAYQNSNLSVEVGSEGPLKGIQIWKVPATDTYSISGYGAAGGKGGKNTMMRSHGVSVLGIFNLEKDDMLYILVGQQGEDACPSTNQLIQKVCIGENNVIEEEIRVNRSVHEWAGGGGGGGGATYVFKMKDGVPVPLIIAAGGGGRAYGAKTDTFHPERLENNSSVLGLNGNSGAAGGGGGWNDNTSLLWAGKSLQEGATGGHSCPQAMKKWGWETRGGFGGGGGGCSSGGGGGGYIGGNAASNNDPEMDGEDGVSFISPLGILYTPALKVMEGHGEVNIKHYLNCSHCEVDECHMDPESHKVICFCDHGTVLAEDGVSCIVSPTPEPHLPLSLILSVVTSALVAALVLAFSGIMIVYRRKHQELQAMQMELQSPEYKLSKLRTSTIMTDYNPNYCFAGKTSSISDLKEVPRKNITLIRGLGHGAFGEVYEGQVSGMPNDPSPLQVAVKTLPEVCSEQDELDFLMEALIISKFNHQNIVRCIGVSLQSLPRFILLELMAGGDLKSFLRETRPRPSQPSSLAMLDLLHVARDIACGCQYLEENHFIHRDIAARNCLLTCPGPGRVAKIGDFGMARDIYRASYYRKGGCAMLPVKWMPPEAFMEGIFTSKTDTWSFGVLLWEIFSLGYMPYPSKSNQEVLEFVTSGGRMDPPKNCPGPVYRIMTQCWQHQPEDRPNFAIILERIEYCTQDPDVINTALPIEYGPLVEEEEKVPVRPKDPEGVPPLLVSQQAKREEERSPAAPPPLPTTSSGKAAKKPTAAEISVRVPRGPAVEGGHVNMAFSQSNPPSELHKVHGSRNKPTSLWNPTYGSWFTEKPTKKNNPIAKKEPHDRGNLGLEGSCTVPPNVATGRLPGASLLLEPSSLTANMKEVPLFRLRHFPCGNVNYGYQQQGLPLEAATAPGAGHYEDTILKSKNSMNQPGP
Sequence of TrkA (P04629 33-796): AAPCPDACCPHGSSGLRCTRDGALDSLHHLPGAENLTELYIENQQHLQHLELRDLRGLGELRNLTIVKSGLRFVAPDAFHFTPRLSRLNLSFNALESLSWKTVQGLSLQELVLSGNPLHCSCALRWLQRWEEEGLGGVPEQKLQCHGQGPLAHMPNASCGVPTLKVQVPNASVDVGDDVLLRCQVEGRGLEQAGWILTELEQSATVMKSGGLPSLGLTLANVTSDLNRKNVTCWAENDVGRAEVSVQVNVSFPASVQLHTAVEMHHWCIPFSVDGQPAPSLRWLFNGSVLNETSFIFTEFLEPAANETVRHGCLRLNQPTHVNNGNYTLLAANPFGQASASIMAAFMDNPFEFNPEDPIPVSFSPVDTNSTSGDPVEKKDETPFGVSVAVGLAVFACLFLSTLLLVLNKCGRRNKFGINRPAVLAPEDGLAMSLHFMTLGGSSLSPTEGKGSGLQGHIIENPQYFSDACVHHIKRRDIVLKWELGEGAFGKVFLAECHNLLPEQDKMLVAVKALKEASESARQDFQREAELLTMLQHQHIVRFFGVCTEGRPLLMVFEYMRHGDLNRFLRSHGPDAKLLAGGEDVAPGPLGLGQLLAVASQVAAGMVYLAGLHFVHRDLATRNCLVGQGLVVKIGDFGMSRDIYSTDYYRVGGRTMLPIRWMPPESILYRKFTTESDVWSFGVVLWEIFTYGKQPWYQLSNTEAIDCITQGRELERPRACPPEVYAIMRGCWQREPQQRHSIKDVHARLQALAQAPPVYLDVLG

Regarding `COc1cc([C@@H]2c3cc4c(cc3[C@H](O)[C@H]3COC(=O)[C@@H]23)OCO4)cc(OC)c1OC` (racemic) [PPP, reference compound], the IC50 (as a rule, the concentration at which inhibition is half-maximal) was above 10000 nM at INSR (read-out: GTx-IRK IC50); above 10000 nM on ALK (read-out: ALK IC50); above 10000 nM at ALK (read-out: GTx-ALK IC50); 138 nM in the data set on U937 lymphoma cells (read-out: GTx-U937 IC50); 138 nM with U937 lymphoma cells (read-out: U937 IC50); 196 nM in the data set with K299 lymphoma cells (read-out: GTx-K299 IC50). The concentration for half-maximal inhibition (IC50) with K299 lymphoma cells (read-out: K299 IC50) came to 196 nM.

With `C[C@@H](Cc1c(F)c(F)cc(F)c1F)Nc1cc[nH]c(=O)c1-c1nc2cc3c(cc2[nH]1)CN(CCN(C)C)C3=O` (single isomer, unassigned) [Compound 1 R isomer], the “cell free activity (in words)” value at ALK (WT) was “inactive”. In addition, the IC50 in the data set with EML4-ALK BaF3 cells (Mus musculus, BaF3, read-out: BaF3 Stables IC50 nM EML4-ALK) turned out to be 1060 nM.

As to `C[C@@H](Cc1c(F)c(F)cc(F)c1F)Nc1cc[nH]c(=O)c1-c1nc2cc3c(cc2[nH]1)CN(CCN1CCCC1)C3=O` [Compound 3], half-maximal inhibition in data set [1] (IC50) required 3170 nM. For the same compound, the “Individual Data Points (% Inhibition)” value in [2] (0.3 µM) was found to be 11.2%; in data set [2] (3 µM), 49.7%; in [2] (10 µM), 70.8%; in [2] (30 µM), 81.7%. The inhibition (as a rule, the share of the control response that was lost under treatment) at 5 min, 0.3 µM amounted to 13.2% at hERG potassium channel (setting [9]) and 12.2% on hERG potassium channel (Mean % hERG Inhibition). Besides, the inhibition at 5 min, 3 µM came out at 49.1% on hERG potassium channel (setting [9]) and 49.4% against hERG potassium channel (Mean % hERG Inhibition). For the same compound, the inhibition at 5 min, 10 µM against hERG potassium channel (setting [9]) was found to be 75.7%; at hERG potassium channel (Mean % hERG Inhibition), 73.3%. In addition, the values for the inhibition at 5 min, 30 µM against hERG potassium channel (setting [9]) and at hERG potassium channel (Mean % hERG Inhibition) were 87.2% and 84.4%, respectively.

For `C[C@@H](Cc1cc(F)cc(F)c1F)Nc1cc[nH]c(=O)c1-c1nc2cc3c(cc2[nH]1)CN(CCN(C)C)C3=O` [Compound 31], the half-inhibitory concentration (IC50) stood at 578 nM at INSR (read-out: IRK IC50); 1 nM at ALK (read-out: ALK IC50); 2200 nM in the data set with U937 lymphoma cells (read-out: U937 IC50); 299 nM at IGF1R; 154 nM in the data set with K299 lymphoma cells (read-out: K299 IC50); 4 nM on TrkA (read-out: TrKA IC50). Moreover, the half-life (in general, how long it takes for the measured level to halve) at 0.5 μM in “in vitro [3]” (pH 7.4) was 8.7 min; in the data set “in vitro [4]” (pH 7.4, Human LM-P1 Half-life (min)), above 120 min; in [5] it was 29 min. Moreover, the microsomal CLint (as a rule, a measure of how fast metabolising enzymes remove a compound, apart from limits set by blood flow) at 0.5 μM was 79.9 µL/min/mg in the data set “in vitro [3]” (pH 7.4, Rat LM-P1 CL (ul/min/mg)) and below 5.8 µL/min/mg in the data set “in vitro [4]” (pH 7.4, Human LM-P1 CL (ul/min/mg)).

Consider `Cc1ccc(F)cc1CC(C)Nc1cc[nH]c(=O)c1-c1nc2cc3c(cc2[nH]1)CN(C)C3=O` (centres unmarked) [Compound 44, 2-(4-(1-(5-Fluoro-2-methylphenyl)propan-2-ylamino)-2-oxo-1,2-dihydropyridin-3-yl)-6-methyl-6,7-dihydroimidazo[4,5-f]isoindol-5(1H)-one], for which the IC50 at ALK (read-out: GTx-ALK IC50) is 37 nM; in the data set with U937 lymphoma cells (read-out: GTx-U937 IC50) it was above 3000 nM; on TrkB it was 4 nM; in the data set with SUDHL-1 lymphoma cells, 829 nM; in the data set on K299 lymphoma cells (read-out: GTx-K299 IC50) it was 798 nM; at TrkA (read-out: GTx-TrKA IC50), 4 nM. For the same compound, the IC50 on TrkC was 1 nM.

Take “(S)-6-(1-Methylpiperidin-4-yl)-2-(2-oxo-4-(1-(2,3,5,6-tetrafluorophenyl)propan-2-ylamino)-1,2-dihydropyridin-3-yl)-6,7-dihydroimidazo[4,5-f]isoindol-5(3H)-one [Compound 4]”: the IC50 in [6] worked out at 283 ± 43 nM; at ALK (read-out: ALK (nM) IC50) it was 9.81 nM; on ALK (read-out: GTx-ALK IC50), 10 nM; in data set [7], 288 ± 20 nM; on TrkA (read-out: TrkA (nM) IC50), 5 nM; with EML4-ALK BaF3 cells (read-out: BaF3 Stables IC50 nM EML4-ALK, EML4-ALK parent construct), 143 ± 6 nM. For the same compound, the “Rat LM-P1 Half-life” value in data set [8] is on record as above 120 min.
